Results from patent publication US12702478B2, “Devices, methods, and compositions for thermal acceleration and drug delivery” (Rhode Island Hospital, priority 2015, dated 2026).
Read-outs that look alike come from different tables or passages of the source. Values belong to the compound of their own block, whether it stands above or below them.

Key:
rat = conditions: cited from earlier work
[1] = at 100° C.; cited from earlier work
[2] = In vitro elution of Doxorubicin from coagulated gel (HPLC); format: physicochemical; conditions: for part of drug eluted out over time: citrate buffer pH 7, 36.5° C.
Description: Methods 2 Absorbance values of three known concentrations of Doxorubicin samples (1.0×10^−6, 9.5×10^−6 and 1.9×10^−5 M) were obtained to established a linear relationship (FIG. 4, Left) using a HPLC system: Agilant 1100; mobile phase=a gradient of ACN and H2O with 1% ammonium acetate; wavelength=500 nm; flow rate=1 mL/min. Each data point was an average of three measurements. Under the HPLC conditions, the retention time of Doxorubicin was at 4.00 minutes. Separately, three different amounts of Doxorubicin (2.1, 1.1 and 0.6 mg) were mixed with HSA-based #1 gel (0.5 mL each) and ablated using the conditions described in Aim 1. Once complete, the coagulated gel impregnated with Doxorubicin was collected and placed in a citrate buffer (5 mL, pH 7) in a water bath at 36.5° C. At 1, 3, 24 and 72 h, a small quantity of solution (0.5 mL) was passed through a membrane filter (cutoff 7 KDa) and injected into the HPLC system to quantify the eluted Doxorubicin. Each data point was triplicated.

[3] = Doxorubicin diffusion from coagulated gel in agarose phantom; format: physicochemical; conditions: 2.0 mg in 0.5 mL gel
Description: Method 1: In a 1% (w/v) agarose gel as phantom, HSA-based #1 gel (0.5 mL) with Doxorubicin HCl (2.0 mg) was placed 1 cm away from a MW antenna at ambient temperature. The ablation was performed at 60 W for 10 minutes (MicroThermX/Varian 915 MHz). Post ablation, the cooled agarose gel was left at ambient temperature for 48 hours for diffusion of the Doxorubicin.
The solution contained 1 (w/v) % agarose phantom. The ablation conditions: 915 MHz, 60 W for 10 minutes.

[4] = In vitro elution of Resiquimod from coagulated gel (HPLC); format: physicochemical
Description: Methods 3 Absorbance values of three known concentrations of Resiquimod samples (4.3×10−6, 4.3×10−5 and 8.6×10−5 M) were obtained to established a linear relationship (FIG. 23A) using the HPLC system as described in Methods 2 except wavelength=328 nm and the retention time=3.31 min.

[5] = Dielectric properties by open-ended coaxial measurement; format: physicochemical
Description: Materials or formulations with a high dipole moment as potential thermal accelerants can be expressed by the ε″ and σ values for thermal ablation (radiofrequency, microwave, irreversible electroporation. A person skilled in the art will recognize that in order to show the capacity of a material, or formulations of a material, quantitatively as a thermal accelerant, the concept of permittivity can be employed in lieu of, or in addition to, evaluation of dipole moment. For example, materials can be tested using an electromagnetic wave of sinusoidal frequency ω, which is directed at a subject sample by an open-ended coaxial cable of a low-power oscillator. Measurement of the magnitude and phase of the fraction of the wave which is reflected allows deduction of the complex permittivity of the tissue.
The complex permittivity is defined as ε*=ε′−jε″, where ε′ is the real permittivity and ε″ is the imaginary permittivity. […] The real permittivity is also known as the dielectric constant. The imaginary permittivity is also called the loss factor and can be written ε″=σ/(ωε0), so as to incorporate the electrical conductivity of the material, […]. The quantity a directly scales the power deposited per unit volume according to the following expression, ARD=σ|E|^2, where ARD is Absorption Rate Density (watt m^−3), […] is electrical conductivity (ohm^−1 m^−1), and JEJ is the magnitude of the electrical field (volt m^−1) produced by the microwave antenna at the point of interest in the tissue.

[6] = reference values; cited from earlier work

SMILES: [Cl-].[Cs+] [CsCl, cesium chloride]
LD50 (rat; iv): 910 mg/kg
LD50 (rat; oral): 2,600 mg/kg
solubility in water [1]: 2.7 kg/L

part of drug eluted out over time ([2]; 0.6 mg in 0.5 mL gel): 87%
part of drug eluted out over time ([2]; 1.1 mg in 0.5 mL gel): 64%
part of drug eluted out over time ([2]; 2.1 mg in 0.5 mL gel): 57%
elution rate over time ([2]; 1, 3, 24, 72 h): highest at 1 h
diffusion to the surrounding area of the phantom ([3]; 6 h after ablation): apparent
diffusion out of coagulated gel ([3]; immediately after ablation): no diffusion out of the protein meshwork
part of drug eluted out over time ([4]; 0.063 mg): 87%
part of drug eluted out over time ([4]; 0.63 mg): 64%
part of drug eluted out over time ([4]; 1.25 mg): 57%
SMILES: COc1cccc2c1C(=O)c1c(O)c3c(c(O)c1C2=O)C[C@@](O)(C(=O)CO)C[C@@H]3O[C@H]1C[C@H](N)[C@H](O)[C@H](C)O1 [Doxorubicin]

SMILES: CO [MeOH, methanol]
Dielectric constant (ε′) ([5]; 915 MHz): 31.2
electrical conductivity (σ) ([5]; 915 MHz): 0.1 mho/m
Dielectric constant (ε′) ([5]; 2450 MHz): 22.2
electrical conductivity (σ) ([5]; 2450 MHz): 0.1

SMILES: O [Water (deionized)]
Electrical Conductivity (σ) of reference media [6]: 5 × 10^−6 S/m

SMILES: O [Water]
Dielectric constant (ε′) ([5]; 915 MHz): 78.3
electrical conductivity (σ) ([5]; 915 MHz): 0 mho/m
Dielectric constant (ε′) ([5]; 2450 MHz): 76.9
electrical conductivity (σ) ([5]; 2450 MHz): 0.1
